Measurements: patent US8415469B2, “Compounds and methods for kinase modulation, and indications therefor” (Plexxikon Inc., priority 2005, dated 2013)

Legend:
Assay type in all cases: biochemical
B-Raf = biological target: T1, B-Raf (Homo sapiens, UniProt P15056); assay: AlphaScreen kinase assay, B-Raf; conditions: read-out: IC50, activity toward kinase B-Raf
T1 construct: purchased Upstate Biotechnology

B-Raf V600E = biological target: T2, B-Raf V600E (Homo sapiens, UniProt P15056, V600E); assay: AlphaScreen kinase assay, B-Raf V600E; conditions: read-out: IC50, activity toward kinase B-Raf V600E
T2 construct: P4254. pFastBacBD-CDC37 BRAF D437-K722-X, V600E; His6 with pFastBac HT leader (TEV site) (N); made in house; host or cells: Sf9 (baculovirus; chaperone CDC37 co-expressed)

FGFR1 = biological target: T3, FGFR1 (Homo sapiens, UniProt P11362, C488A/C584S); assay: AlphaScreen kinase assay, FGFR1; conditions: read-out: IC50, activity toward kinase FGFR
T3 construct: P1351.pET N6 BI-PTP FGFR A458-E765-X C488A, C584S; made in house; host or cells: E. coli (PTP1B co-expressed)

Fms = biological target: T4, Fms (Homo sapiens, UniProt P07333); assay: AlphaScreen kinase assay, Fms; conditions: read-out: IC50, activity toward kinase Fms
T4 construct: purchased Upstate Biotechnology

Kdr = biological target: T5, Kdr (Homo sapiens, UniProt P35968); assay: Z'-Lyte FRET kinase assay (Invitrogen), Kdr; conditions: read-out: IC50, activity toward kinase Kdr
T5 construct: purchased Invitrogen (assay run by Invitrogen)

Kit = biological target: T6, Kit (Homo sapiens, UniProt P10721); assay: AlphaScreen kinase assay, Kit; conditions: read-out: IC50, activity toward kinase Kit
T6 construct: P1332.N6 BI PTP KIT M552-K948-X COD; His6 (N); made in house; host or cells: E. coli (PTP1B co-expressed)

Ret = biological target: T7, Ret (Homo sapiens, UniProt P07949); assay: AlphaScreen kinase assay, Ret; conditions: read-out: IC50, activity toward kinase Ret
T7 construct: P1378.pET-SF BI-PTP RET H661-R1012 HIS; made in house
T7 sequence (P07949 with tags, fused parts or gaps): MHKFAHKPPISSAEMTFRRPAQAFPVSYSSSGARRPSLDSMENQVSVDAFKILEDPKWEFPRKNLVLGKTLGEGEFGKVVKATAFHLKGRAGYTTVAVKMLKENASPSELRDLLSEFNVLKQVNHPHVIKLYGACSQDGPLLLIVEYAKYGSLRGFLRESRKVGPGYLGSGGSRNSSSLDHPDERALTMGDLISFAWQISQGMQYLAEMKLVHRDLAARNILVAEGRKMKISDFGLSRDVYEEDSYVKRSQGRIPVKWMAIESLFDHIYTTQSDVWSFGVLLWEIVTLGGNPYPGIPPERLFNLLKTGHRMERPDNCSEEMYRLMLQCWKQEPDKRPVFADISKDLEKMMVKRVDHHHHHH

Yes = biological target: T8, Yes (Homo sapiens, UniProt P07947); assay: Z'-Lyte FRET kinase assay (Invitrogen), Yes; conditions: read-out: IC50, activity toward kinase Yes
T8 construct: purchased Invitrogen (Carlsbad, Calif.), screening service
Procedure, shortened: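 Read-out is the coumarin-to-fluorescein emission ratio, which rises when unphosphorylated peptide is cleaved by the development protease. Reactions contain serially diluted compound, 2 μM peptide and 10 μM ATP and run for 1 h at room temperature before 1 h development.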

Measured: IC50

T6 sequence (P10721 with tags, fused parts or gaps): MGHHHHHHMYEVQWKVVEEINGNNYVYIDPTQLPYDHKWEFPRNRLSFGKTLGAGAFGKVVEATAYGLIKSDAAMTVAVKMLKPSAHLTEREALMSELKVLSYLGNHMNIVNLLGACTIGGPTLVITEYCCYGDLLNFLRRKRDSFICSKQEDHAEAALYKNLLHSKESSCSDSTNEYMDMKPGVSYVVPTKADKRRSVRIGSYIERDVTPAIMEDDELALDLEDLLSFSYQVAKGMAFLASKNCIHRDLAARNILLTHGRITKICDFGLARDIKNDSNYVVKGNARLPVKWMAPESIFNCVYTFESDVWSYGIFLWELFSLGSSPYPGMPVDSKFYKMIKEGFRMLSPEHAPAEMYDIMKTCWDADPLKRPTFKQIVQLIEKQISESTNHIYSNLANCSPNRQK
T5 sequence (P35968 20-1356): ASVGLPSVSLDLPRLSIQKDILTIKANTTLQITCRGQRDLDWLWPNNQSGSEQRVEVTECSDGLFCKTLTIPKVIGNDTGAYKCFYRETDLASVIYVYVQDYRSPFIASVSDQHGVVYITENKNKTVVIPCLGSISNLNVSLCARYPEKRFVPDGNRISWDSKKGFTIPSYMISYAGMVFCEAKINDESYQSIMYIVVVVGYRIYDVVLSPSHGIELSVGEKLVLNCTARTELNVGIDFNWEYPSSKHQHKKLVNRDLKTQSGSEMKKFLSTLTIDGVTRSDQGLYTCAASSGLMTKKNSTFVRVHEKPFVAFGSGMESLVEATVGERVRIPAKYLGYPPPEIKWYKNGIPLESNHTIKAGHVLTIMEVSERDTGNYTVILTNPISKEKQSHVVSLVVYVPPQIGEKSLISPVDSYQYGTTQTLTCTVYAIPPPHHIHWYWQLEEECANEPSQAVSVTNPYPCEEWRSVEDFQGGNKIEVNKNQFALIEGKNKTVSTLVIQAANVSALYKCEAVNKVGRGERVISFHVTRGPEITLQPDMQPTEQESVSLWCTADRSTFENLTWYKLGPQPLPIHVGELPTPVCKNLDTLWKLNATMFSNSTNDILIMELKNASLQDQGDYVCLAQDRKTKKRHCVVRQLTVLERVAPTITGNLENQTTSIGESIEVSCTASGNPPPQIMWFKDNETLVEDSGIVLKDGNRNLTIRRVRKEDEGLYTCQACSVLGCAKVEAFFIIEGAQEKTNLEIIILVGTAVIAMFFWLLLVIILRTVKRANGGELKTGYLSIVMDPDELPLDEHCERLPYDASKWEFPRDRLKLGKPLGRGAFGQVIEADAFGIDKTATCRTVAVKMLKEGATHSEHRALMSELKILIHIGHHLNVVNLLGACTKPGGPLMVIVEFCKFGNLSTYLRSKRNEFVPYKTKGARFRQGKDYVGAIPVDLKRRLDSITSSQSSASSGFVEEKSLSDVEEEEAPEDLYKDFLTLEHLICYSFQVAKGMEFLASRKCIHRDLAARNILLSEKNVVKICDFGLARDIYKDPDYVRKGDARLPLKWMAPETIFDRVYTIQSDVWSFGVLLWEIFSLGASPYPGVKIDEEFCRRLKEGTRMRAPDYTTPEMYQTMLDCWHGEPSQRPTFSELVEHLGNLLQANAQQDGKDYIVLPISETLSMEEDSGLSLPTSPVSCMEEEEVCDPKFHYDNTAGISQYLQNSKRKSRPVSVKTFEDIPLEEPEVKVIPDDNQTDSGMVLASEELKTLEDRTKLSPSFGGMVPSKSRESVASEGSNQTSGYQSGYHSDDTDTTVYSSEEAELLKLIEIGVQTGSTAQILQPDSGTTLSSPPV
T3 sequence (P11362 458-765 C488A/C584S): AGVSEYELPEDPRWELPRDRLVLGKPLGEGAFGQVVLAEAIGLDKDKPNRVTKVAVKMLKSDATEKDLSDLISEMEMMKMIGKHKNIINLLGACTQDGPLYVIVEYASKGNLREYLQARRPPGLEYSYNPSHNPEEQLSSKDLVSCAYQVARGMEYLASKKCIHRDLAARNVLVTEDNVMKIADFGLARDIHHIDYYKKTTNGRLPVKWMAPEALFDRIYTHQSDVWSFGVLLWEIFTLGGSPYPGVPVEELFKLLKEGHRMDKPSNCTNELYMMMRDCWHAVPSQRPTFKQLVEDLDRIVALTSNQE
T2 sequence (P15056 with tags, fused parts or gaps V600E): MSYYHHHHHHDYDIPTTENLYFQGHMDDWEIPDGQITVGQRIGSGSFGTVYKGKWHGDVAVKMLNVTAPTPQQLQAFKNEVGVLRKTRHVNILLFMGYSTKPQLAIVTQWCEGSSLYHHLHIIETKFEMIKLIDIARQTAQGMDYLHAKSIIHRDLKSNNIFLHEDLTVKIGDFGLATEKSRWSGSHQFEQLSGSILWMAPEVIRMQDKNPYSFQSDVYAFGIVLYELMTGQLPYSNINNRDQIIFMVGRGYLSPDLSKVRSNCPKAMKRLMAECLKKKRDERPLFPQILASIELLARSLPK
T4 sequence (P07333 20-972): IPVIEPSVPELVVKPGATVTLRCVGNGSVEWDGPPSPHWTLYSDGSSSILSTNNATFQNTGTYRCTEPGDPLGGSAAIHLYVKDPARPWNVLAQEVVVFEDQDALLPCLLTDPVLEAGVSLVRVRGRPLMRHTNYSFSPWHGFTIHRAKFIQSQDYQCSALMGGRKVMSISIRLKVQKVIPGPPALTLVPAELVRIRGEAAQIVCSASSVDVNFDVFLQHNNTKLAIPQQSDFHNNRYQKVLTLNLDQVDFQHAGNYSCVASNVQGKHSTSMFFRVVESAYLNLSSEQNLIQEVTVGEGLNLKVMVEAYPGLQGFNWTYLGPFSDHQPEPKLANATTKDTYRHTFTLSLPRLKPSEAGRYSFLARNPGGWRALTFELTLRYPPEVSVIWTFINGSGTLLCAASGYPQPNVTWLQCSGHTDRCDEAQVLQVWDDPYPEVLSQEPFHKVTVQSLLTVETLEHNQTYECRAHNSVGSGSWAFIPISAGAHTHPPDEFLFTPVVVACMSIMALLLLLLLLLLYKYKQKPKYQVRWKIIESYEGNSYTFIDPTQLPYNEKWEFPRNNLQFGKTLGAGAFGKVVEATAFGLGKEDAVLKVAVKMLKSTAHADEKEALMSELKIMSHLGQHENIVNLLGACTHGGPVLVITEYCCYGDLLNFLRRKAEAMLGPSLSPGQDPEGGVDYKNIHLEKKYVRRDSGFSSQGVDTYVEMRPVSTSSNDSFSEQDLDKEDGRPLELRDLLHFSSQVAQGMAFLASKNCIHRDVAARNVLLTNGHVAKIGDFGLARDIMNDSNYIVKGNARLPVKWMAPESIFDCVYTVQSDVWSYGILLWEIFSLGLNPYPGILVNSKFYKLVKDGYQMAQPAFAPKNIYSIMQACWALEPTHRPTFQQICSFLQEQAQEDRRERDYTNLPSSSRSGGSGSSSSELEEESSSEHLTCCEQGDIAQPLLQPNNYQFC
T8 sequence (P07947 whole entry): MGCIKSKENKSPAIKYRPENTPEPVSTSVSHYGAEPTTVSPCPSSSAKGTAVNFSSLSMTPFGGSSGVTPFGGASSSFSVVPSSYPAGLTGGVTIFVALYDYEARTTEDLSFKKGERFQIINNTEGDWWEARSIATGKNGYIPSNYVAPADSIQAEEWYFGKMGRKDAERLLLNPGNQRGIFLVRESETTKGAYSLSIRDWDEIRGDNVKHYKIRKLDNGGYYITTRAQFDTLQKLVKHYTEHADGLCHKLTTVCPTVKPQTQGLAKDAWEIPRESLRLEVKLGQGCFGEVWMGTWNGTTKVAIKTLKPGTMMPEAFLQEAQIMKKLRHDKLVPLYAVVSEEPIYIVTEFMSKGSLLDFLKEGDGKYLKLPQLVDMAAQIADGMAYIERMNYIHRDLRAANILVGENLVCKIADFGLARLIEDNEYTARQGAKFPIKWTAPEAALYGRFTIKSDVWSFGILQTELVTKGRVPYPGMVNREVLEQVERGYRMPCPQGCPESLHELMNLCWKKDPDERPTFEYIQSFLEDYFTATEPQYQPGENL
T1 sequence (P15056 whole entry): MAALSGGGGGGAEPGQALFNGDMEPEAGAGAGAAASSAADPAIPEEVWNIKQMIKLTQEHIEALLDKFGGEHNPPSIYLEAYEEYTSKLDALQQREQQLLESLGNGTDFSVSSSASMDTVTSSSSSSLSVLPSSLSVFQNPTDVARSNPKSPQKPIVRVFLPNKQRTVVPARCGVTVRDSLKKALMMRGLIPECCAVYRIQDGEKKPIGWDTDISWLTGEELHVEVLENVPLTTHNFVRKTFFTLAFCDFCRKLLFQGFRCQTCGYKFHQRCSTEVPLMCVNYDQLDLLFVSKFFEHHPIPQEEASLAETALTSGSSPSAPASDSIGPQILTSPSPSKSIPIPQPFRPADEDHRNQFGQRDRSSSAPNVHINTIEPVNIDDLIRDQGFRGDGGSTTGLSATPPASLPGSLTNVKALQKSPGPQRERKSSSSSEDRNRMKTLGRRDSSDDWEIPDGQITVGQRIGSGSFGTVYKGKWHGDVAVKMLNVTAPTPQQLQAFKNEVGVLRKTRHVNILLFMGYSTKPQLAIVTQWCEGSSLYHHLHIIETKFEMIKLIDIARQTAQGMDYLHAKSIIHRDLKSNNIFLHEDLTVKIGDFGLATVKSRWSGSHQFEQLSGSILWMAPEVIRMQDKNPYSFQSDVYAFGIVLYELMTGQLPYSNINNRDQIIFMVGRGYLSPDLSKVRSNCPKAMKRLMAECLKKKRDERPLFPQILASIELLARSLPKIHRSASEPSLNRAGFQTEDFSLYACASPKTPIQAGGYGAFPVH

O=C(c1cc(O)ccc1F)c1c[nH]c2ncccc12 [Compound P-0005]
≤ 10 µM: all assays above

O=C(c1cccc(O)c1)c1c[nH]c2nccc(Cl)c12 [Compound P-0012]
not listed: B-Raf
≤ 10 µM: all other assays above

Cc1c(O)cccc1C(=O)c1c[nH]c2ncc(-c3ccccc3)cc12 [Compound P-0016, (3-Hydroxy-2-methyl-phenyl)-(5-phenyl-1H-pyrrolo[2,3b]pyridin-3-yl)-methanone]
≤ 10 µM: all assays above

O=C(c1cccc(O)c1)c1c[nH]c2ncc(Br)cc12 [Compound P-0019]
≤ 10 µM: all assays above

CS(=O)(=O)c1cccc(-c2cnc3[nH]cc(C(O)c4c(F)ccc(F)c4F)c3c2)c1 (stereo not drawn) [Compound P-0020]
not listed: B-Raf | B-Raf V600E
≤ 10 µM: all other assays above

O=C(c1ccc(O)cc1)c1c[nH]c2ncc(-c3cccs3)cc12 [Compound P-0024, (4-Hydroxy-phenyl)-(5-thiophen-2-yl-1H-pyrrolo[2,3-b]pyridin-3-yl)-methanone]
not listed: Fms
≤ 10 µM: all other assays above

O=C(c1cccc(O)c1F)c1c[nH]c2ncc(-c3cccnc3)cc12 [Compound P-0027, (2-Fluoro-3-hydroxy-phenyl)-(5-pyridin-3-yl-1H-pyrrolo[2,3-b]pyridin-3-yl)-methanone]
≤ 10 µM: all assays above

O=C(O)/C=C/c1cccc(-c2cnc3[nH]cc(C(=O)c4ccccc4F)c3c2)c1 [Compound P-0033]
not listed: B-Raf
≤ 10 µM: all other assays above

Cc1ccc(F)cc1C(=O)c1c[nH]c2ncc(-c3cccc(N)c3)cc12 [Compound P-0040]
not listed: B-Raf | Fms
≤ 10 µM: all other assays above

O=C(c1cc(O)ccc1F)c1c[nH]c2ncc(-c3ccccc3)cc12 [Compound P-0045]
not listed: Kit
≤ 10 µM: all other assays above

O=C(c1cccc(O)c1)c1c[nH]c2ncc(-c3cccnc3)cc12 [Compound P-0048]
≤ 10 µM: B-Raf V600E | Fms | Kdr | Ret | Yes

Cc1ccc(F)cc1C(=O)c1c[nH]c2ncc(-c3ccc(C(N)=O)cc3)cc12 [Compound P-0050]
not listed: Fms
≤ 10 µM: all other assays above

Oc1cccc(Cc2c[nH]c3ncc(-c4cccs4)cc23)c1F [Compound P-0052, 2-Fluoro-3-(5-thiophen-2-yl-1H-pyrrolo[2,3-b]pyridin-3-ylmethyl)-phenol]
not listed: Fms | Kit
≤ 10 µM: all other assays above

Cc1c(O)cccc1C(=O)c1c[nH]c2ncc(Br)cc12 [Compound P-0055, (5-Bromo-1H-pyrrolo[2,3-b]pyridin-3-yl)-(3-hydroxy-2-methyl-phenyl)-methanone]
not listed: Fms | Kit
≤ 10 µM: all other assays above

Oc1cccc(Cc2c[nH]c3ncc(-c4ccsc4)cc23)c1 [Compound P-0056]
not listed: Fms
≤ 10 µM: all other assays above

CS(=O)(=O)Nc1cccc(-c2ccnc3[nH]cc(C(=O)c4cc(F)ccc4F)c23)c1 [Compound P-0060]
≤ 10 µM: B-Raf | B-Raf V600E | Kdr | Ret | Yes

Cc1c(NS(C)(=O)=O)cccc1C(=O)c1c[nH]c2ncc(-c3ccccc3)cc12 [Compound P-0082, N-[2-Methyl-3-(5-phenyl-1H-pyrrolo[2,3-b]pyridine-3-carbonyl)-phenyl]-methanesulfonamide]
≤ 10 µM: all assays above

OC(c1c(F)ccc(F)c1F)c1c[nH]c2ncc(-c3cccnc3)cc12 (stereo not drawn) [Compound P-0101]
not listed: B-Raf | B-Raf V600E
≤ 10 µM: all other assays above

Oc1ccc(F)c(Cc2c[nH]c3ncc(Br)cc23)c1F [Compound P-0122, 3-(5-Bromo-1H-pyrrolo[2,3-b]pyridin-3-ylmethyl)-2,4-difluoro-phenol]
not listed: FGFR1 | Fms
≤ 10 µM: all other assays above

O=C(c1ccccc1F)c1c[nH]c2ncc(-c3ccsc3)cc12 [Compound P-0134]
not listed: B-Raf
≤ 10 µM: all other assays above
